This is an account of results in US20260297080A1, “BICYCLIC COMPOUNDS AS CDK INHIBITORS” (BeOne Medicines I GmbH, priority 2022, published 2026).

The structures appear in SMILES notation.

One assay addresses CDK1/Cyclin B1 (Homo sapiens, UniProt P06493). The assay is described as follows: CDK1/Cyclin B1 Biochemical Assay (TR-FRET), 0.015 mM ATP. Particulars: 0.15 μM Rb (Ser780)-biotin substrate, pH7.0, 60 min preincubation, 120 min reaction, room temperature. The method in brief: (§1)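 Inhibitor concentrations up to 10 μM were preincubated with each cyclin–kinase complex for 60 minutes before ATP and biotinylated Rb (Ser780) substrate (0.15 μM) were added. After 120 minutes at room temperature, phosphorylation was quantified by HTRF and IC50 values were fitted with a four-parameter logistic equation.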
For orientation: Time-resolved FRET reads energy transfer from a long-lived donor to a nearby acceptor.

The next assay addresses CDK2/Cyclin E1 (Homo sapiens, UniProt P24941). Briefly: CDK2/Cyclin E1 Biochemical Assay (TR-FRET), 0.060 mM ATP. Particulars: 0.15 μM Rb (Ser780)-biotin substrate, pH7.0, 60 min preincubation, 120 min reaction, room temperature. The method in brief:
as §1

Sequence of CDK1/Cyclin B1 (P06493 whole entry): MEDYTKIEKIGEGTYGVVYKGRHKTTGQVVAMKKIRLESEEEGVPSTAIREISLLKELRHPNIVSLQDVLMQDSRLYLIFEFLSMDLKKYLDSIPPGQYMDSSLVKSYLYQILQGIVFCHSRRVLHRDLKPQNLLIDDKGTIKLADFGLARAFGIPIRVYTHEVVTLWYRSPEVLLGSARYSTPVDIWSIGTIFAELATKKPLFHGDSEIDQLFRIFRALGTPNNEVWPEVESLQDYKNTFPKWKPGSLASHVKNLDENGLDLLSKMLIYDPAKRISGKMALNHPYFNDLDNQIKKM
Sequence of CDK1/Cyclin B1 (P14635 whole entry partner): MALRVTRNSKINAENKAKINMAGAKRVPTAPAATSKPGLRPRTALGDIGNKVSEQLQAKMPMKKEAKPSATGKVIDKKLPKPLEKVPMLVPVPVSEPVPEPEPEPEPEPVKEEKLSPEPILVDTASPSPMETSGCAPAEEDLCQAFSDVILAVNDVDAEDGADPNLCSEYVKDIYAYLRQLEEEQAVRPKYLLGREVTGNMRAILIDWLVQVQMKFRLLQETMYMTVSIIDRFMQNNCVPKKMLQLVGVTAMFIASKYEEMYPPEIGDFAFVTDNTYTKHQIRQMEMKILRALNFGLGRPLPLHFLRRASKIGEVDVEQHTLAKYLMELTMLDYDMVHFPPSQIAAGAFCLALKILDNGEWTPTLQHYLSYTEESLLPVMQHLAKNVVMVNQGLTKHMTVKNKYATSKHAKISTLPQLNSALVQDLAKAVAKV

In general, IC50 refers to the concentration needed to halve the response being measured. Read a high IC50 as lower potency. Turning to `CN1Cc2c(ccc(Nc3cc([C@@H]4CC[C@H](OC(=O)NC5(C)COC5)C4)[nH]n3)c2F)S1(=O)=O` (single isomer, unassigned) [Example 352a, cis-3-(3-((4-fluoro-2-methyl-1,1-dioxido-2,3-dihydrobenzo[d]isothiazol-5-yl)amino)-1H-pyrazol-5-yl)cyclopentyl(3-methyloxetan-3-yl)carbamate], the IC50 stood at 365 nM against CDK1/Cyclin B1 and 14 nM at CDK2/Cyclin E1.
The corresponding values for `CN1Cc2c(ccc(Nc3cc([C@@H]4CC[C@H](OC(=O)NC5(C)COC5)C4)[nH]n3)c2F)S1(=O)=O` (single isomer, unassigned) [Example 352b, cis-3-(3-((4-fluoro-2-methyl-1,1-dioxido-2,3-dihydrobenzo[d]isothiazol-5-yl)amino)-1H-pyrazol-5-yl)cyclopentyl(3-methyloxetan-3-yl)carbamate] are 651 nM and 7 nM.
The corresponding values for `O=C(NC1CCC1)O[C@H]1CC[C@@H](c2cc(Nc3ccc4c(c3)CS(=O)(=O)N4)n[nH]2)C1` (single isomer, unassigned) [Example 380a, cis-3-(3-((2,2-dioxido-1,3-dihydrobenzo[c]isothiazol-5-yl)amino)-1H-pyrazol-5-yl)cyclopentyl cyclobutylcarbamate] are 70 nM and 1.6 nM.
Taken in the same sequence, the figures for `O=C(NC1CCC1)O[C@H]1CC[C@@H](c2cc(Nc3ccc4c(c3)CS(=O)(=O)N4)n[nH]2)C1` (single isomer, unassigned) [Example 380b, cis-3-(3-((2,2-dioxido-1,3-dihydrobenzo[c]isothiazol-5-yl)amino)-1H-pyrazol-5-yl)cyclopentyl cyclobutylcarbamate] were 23 nM and 0.9 nM.
On to `O=C(NC1CCCC1)O[C@H]1CC[C@@H](c2cc(Nc3ccc4c(c3)CS(=O)(=O)N4)n[nH]2)C1` (single isomer, unassigned) [Example 381a, cis-3-(3-((2,2-dioxido-1,3-dihydrobenzo[c]isothiazol-5-yl)amino)-1H-pyrazol-5-yl)cyclopentyl cyclopentylcarbamate], for which the IC50 worked out at 45 nM on CDK1/Cyclin B1 and 1.2 nM against CDK2/Cyclin E1.
The corresponding values for `O=C(NC1CCCC1)O[C@H]1CC[C@@H](c2cc(Nc3ccc4c(c3)CS(=O)(=O)N4)n[nH]2)C1` (single isomer, unassigned) [Example 381b, cis-3-(3-((2,2-dioxido-1,3-dihydrobenzo[c]isothiazol-5-yl)amino)-1H-pyrazol-5-yl)cyclopentyl cyclopentylcarbamate] are 19 nM and 0.9 nM.
Taken in the same sequence, the figures for `CC[C@H](C)NC(=O)O[C@@H]1CC[C@H](c2cc(Nc3ccc4c(c3F)CS(=O)(=O)N4)n[nH]2)C1` (single isomer, unassigned) [Example 383a] were 45 nM and 1.7 nM.
Taken in the same sequence, the figures for `CC[C@H](C)NC(=O)O[C@H]1CC[C@@H](c2cc(Nc3ccc4c(c3F)CS(=O)(=O)N4)n[nH]2)C1` (single isomer, unassigned) [Example 383b] were 15 nM and 1.4 nM.
Consider `CC(C)NC(=O)O[C@H]1CC[C@@H](c2cc(Nc3ccc4c(c3)C(C)S(=O)(=O)N4)n[nH]2)C1` (single isomer, unassigned) [Example 384a, cis-3-(3-((3-methyl-2,2-dioxido-1,3-dihydrobenzo[c]isothiazol-5-yl)amino)-1H-pyrazol-5-yl)cyclopentyl isopropylcarbamate], for which the IC50 turned out to be 22 nM against CDK1/Cyclin B1 and 0.8 nM against CDK2/Cyclin E1.
Consider `CC(C)NC(=O)O[C@H]1CC[C@@H](c2cc(Nc3ccc4c(c3)C(C)S(=O)(=O)N4)n[nH]2)C1` (single isomer, unassigned) [Example 384b, cis-3-(3-((3-methyl-2,2-dioxido-1,3-dihydrobenzo[c]isothiazol-5-yl)amino)-1H-pyrazol-5-yl)cyclopentyl isopropylcarbamate], for which the values for the IC50 against CDK1/Cyclin B1 and on CDK2/Cyclin E1 were 191 nM and 3.9 nM, respectively.
`CC(C)NC(=O)O[C@H]1CC[C@@H](c2cc(Nc3ccc4c(c3)C(C)S(=O)(=O)N4)n[nH]2)C1` (single isomer, unassigned) [Example 384c, cis-3-(3-((3-methyl-2,2-dioxido-1,3-dihydrobenzo[c]isothiazol-5-yl)amino)-1H-pyrazol-5-yl)cyclopentyl isopropylcarbamate]: the IC50 against CDK1/Cyclin B1 was determined as 14 nM; against CDK2/Cyclin E1, 1.2 nM.
Taken in the same sequence, the figures for `CC(C)NC(=O)O[C@H]1CC[C@@H](c2cc(Nc3ccc4c(c3)C(C)S(=O)(=O)N4)n[nH]2)C1` (single isomer, unassigned) [Example 384d, cis-3-(3-((3-methyl-2,2-dioxido-1,3-dihydrobenzo[c]isothiazol-5-yl)amino)-1H-pyrazol-5-yl)cyclopentyl isopropylcarbamate] were 57 nM and 1.8 nM.
The corresponding values for `CCCNC(=O)O[C@@H]1CC[C@H](c2cc(Nc3ccc4c(c3F)CS(=O)(=O)N4)n[nH]2)C1` (single isomer, unassigned) [Example 387a] are 137 nM and 3 nM.
For `CCCNC(=O)O[C@H]1CC[C@@H](c2cc(Nc3ccc4c(c3F)CS(=O)(=O)N4)n[nH]2)C1` (single isomer, unassigned) [Example 387b], the values for the IC50 on CDK1/Cyclin B1 and against CDK2/Cyclin E1 were 37 nM and 2 nM, respectively.
On to `CC1(NC(=O)O[C@@H]2CC[C@H](c3cc(Nc4ccc5c(c4F)CS(=O)(=O)N5)n[nH]3)C2)CC1` (single isomer, unassigned) [Example 388a], for which the IC50 at CDK1/Cyclin B1 turned out to be 36 nM; against CDK2/Cyclin E1, 1.2 nM.
The corresponding values for `CC1(NC(=O)O[C@H]2CC[C@@H](c3cc(Nc4ccc5c(c4F)CS(=O)(=O)N5)n[nH]3)C2)CC1` (single isomer, unassigned) [Example 388b] are 21 nM and 1.3 nM.
As for `CC(C)(C)NC(=O)O[C@@H]1CC[C@H](c2cc(Nc3cc4c(cc3F)S(=O)(=O)NC4)n[nH]2)C1` (single isomer, unassigned) [Example 395a], the results for the 50% inhibitory concentration (IC50) at CDK1/Cyclin B1 and against CDK2/Cyclin E1 were 191 nM and 1.6 nM, respectively.
The corresponding values for `CC(C)(C)NC(=O)O[C@H]1CC[C@@H](c2cc(Nc3cc4c(cc3F)S(=O)(=O)NC4)n[nH]2)C1` (single isomer, unassigned) [Example 395b] are 114 nM and 1.3 nM.
For the compound `O=C(NC1CCC1)O[C@@H]1CC[C@H](c2cc(Nc3ccc4c(c3F)CS(=O)(=O)N4)n[nH]2)C1` (single isomer, unassigned) [Example 399a], the IC50 is 264 nM at CDK1/Cyclin B1 and 6.2 nM against CDK2/Cyclin E1.
Taken in the same sequence, the figures for `O=C(NC1CCC1)O[C@H]1CC[C@@H](c2cc(Nc3ccc4c(c3F)CS(=O)(=O)N4)n[nH]2)C1` (single isomer, unassigned) [Example 399b] were 90 nM and 3.8 nM.
Taken in the same sequence, the figures for `O=C(NC1CCCC1)O[C@@H]1CC[C@H](c2cc(Nc3ccc4c(c3F)CS(=O)(=O)N4)n[nH]2)C1` (single isomer, unassigned) [Example 400a] were 154 nM and 6.9 nM.
Regarding `O=C(NC1CCCC1)O[C@H]1CC[C@@H](c2cc(Nc3ccc4c(c3F)CS(=O)(=O)N4)n[nH]2)C1` (single isomer, unassigned) [Example 400b], the 50% inhibitory concentration (IC50) on CDK1/Cyclin B1 is 64 nM; against CDK2/Cyclin E1, 3.4 nM.
Taken in the same sequence, the figures for `O=C(NCCC(F)(F)F)O[C@@H]1CC[C@H](c2cc(Nc3cc4c(cc3F)S(=O)(=O)NC4)n[nH]2)C1` (single isomer, unassigned) [Example 419a] were 298 nM and 2 nM.
Turning to `O=C(NCCC(F)(F)F)O[C@H]1CC[C@@H](c2cc(Nc3cc4c(cc3F)S(=O)(=O)NC4)n[nH]2)C1` (single isomer, unassigned) [Example 419b], the 50% inhibitory concentration (IC50) against CDK1/Cyclin B1 turned out to be 78 nM; on CDK2/Cyclin E1, 1.8 nM.
The corresponding values for `CC(C)NC(=O)O[C@@H]1CC[C@H](c2cc(Nc3ccc4c(c3)NS(=O)(=O)C4)n[nH]2)C1` (stereo in doubt) [Example 303a, cis-3-(3-((2,2-dioxido-1,3-dihydrobenzo[c]isothiazol-6-yl)amino)-1H-pyrazol-5-yl)cyclopentyl isopropylcarbamate] are 48 nM and 2.6 nM.
The corresponding values for `CC(C)NC(=O)O[C@H]1CC[C@@H](c2cc(Nc3ccc4c(c3)NS(=O)(=O)C4)n[nH]2)C1` (stereo in doubt) [Example 303b, cis-3-(3-((2,2-dioxido-1,3-dihydrobenzo[c]isothiazol-6-yl)amino)-1H-pyrazol-5-yl)cyclopentyl isopropylcarbamate] are 28 nM and 2 nM.
The corresponding values for `CCCNC(=O)O[C@H]1C[C@@H](c2cc(Nc3cc4c(cc3F)S(=O)(=O)NC4)n[nH]2)C1` [Example 50, cis-3-(3-((6-fluoro-1,1-dioxido-2,3-dihydrobenzo[d]isothiazol-5-yl)amino)-1H-pyrazol-5-yl)cyclobutyl propylcarbamate] are 140 nM and 5.6 nM.
As to `CC(C)NC(=O)OC1CC(c2cc(Nc3ccc4c(c3F)CNS4(=O)=O)n[nH]2)C1` (stereo not drawn) [Example 137, 3-(3-((4-fluoro-1,1-dioxido-2,3-dihydrobenzo[d]isothiazol-5-yl)amino)-1H-pyrazol-5-yl)cyclobutyl isopropylcarbamate], the IC50 worked out at 375 nM at CDK1/Cyclin B1 and 35 nM on CDK2/Cyclin E1.
Taken in the same sequence, the figures for `CC(C)NC(=O)OC1CC(c2cc(Nc3ccc4c(c3)CNS4(=O)=O)n[nH]2)C1` (stereo not drawn) [Example 173, 3-(3-((1,1-dioxido-2,3-dihydrobenzo[d]isothiazol-5-yl)amino)-1H-pyrazol-5-yl)cyclobutyl isopropylcarbamate] were 73 nM and 6.7 nM.
The corresponding values for `CCCNC(=O)O[C@H]1CC[C@@H](c2cc(Nc3ccc4c(c3)CS(=O)(=O)N4)n[nH]2)C1` [Example 195b] are 67 nM and 17 nM.
